Legend:
[1] = molecular target: Histamine H1 receptor (Homo sapiens, UniProt P35367)
[2] = molecular target: T1, Muscarinic acetylcholine receptor M1 (Homo sapiens, UniProt P11229); assay type: functional
T1 sequence (P11229 whole entry): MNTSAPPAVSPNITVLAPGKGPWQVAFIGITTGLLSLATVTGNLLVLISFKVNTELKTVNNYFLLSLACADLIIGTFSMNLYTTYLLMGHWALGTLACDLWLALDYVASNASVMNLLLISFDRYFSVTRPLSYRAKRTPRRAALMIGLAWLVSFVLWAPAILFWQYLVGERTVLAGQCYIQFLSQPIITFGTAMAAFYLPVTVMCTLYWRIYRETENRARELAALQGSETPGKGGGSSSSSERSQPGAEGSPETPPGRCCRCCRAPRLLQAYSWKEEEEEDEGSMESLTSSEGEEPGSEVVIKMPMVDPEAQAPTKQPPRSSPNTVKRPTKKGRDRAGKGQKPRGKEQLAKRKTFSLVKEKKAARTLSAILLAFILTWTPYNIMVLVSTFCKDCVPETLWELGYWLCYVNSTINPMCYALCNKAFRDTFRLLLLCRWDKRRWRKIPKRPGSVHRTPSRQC

[3] = molecular target: Beta-1 adrenergic receptor (Homo sapiens, UniProt P08588); assay type: functional
[4] = molecular target: Sodium-dependent noradrenaline transporter (Homo sapiens, UniProt P23975)
[5] = molecular target: T2, B2 bradykinin receptor (Homo sapiens, UniProt P30411)
T2 sequence (P30411 whole entry): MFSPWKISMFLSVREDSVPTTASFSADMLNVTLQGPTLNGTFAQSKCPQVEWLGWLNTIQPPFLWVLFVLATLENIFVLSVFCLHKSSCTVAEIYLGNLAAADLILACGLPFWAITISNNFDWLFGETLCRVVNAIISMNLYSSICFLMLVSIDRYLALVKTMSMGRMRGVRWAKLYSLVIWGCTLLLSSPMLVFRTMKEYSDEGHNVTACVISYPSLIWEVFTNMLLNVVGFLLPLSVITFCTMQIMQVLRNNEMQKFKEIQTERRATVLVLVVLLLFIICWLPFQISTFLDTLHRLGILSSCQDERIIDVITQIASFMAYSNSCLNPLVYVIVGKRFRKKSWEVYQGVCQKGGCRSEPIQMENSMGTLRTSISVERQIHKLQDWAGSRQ

[6] = molecular target: Muscarinic acetylcholine receptor M3 (Homo sapiens, UniProt P20309)
[7] = molecular target: D(3) dopamine receptor (Homo sapiens, UniProt P35462)
[8] = molecular target: Sodium-dependent dopamine transporter (Homo sapiens, UniProt Q01959)
[9] = molecular target: Gamma-aminobutyric acid receptor subunit alpha-1 (Rattus norvegicus, UniProt P62813); assay type: functional
[10] = molecular target: T3, Estrogen receptor (Homo sapiens, UniProt P03372)
T3 sequence (P03372 whole entry): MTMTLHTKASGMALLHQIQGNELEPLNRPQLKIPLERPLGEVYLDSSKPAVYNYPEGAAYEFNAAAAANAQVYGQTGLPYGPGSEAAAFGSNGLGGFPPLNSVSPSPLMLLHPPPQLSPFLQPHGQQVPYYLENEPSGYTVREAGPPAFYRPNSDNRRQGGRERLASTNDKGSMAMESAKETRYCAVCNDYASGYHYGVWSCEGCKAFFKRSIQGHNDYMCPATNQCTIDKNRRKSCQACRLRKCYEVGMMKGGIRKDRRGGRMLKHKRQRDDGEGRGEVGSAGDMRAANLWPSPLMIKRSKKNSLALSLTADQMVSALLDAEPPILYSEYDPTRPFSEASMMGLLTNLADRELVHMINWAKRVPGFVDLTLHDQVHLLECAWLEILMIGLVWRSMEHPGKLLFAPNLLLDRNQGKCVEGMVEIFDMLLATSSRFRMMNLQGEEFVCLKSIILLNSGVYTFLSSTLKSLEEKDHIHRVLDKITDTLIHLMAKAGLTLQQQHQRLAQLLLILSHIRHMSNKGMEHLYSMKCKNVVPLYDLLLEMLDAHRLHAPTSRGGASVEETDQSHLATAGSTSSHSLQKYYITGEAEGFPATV

[11] = molecular target: Motilin receptor (Homo sapiens, UniProt O43193)
[12] = molecular target: T4, Type-1 angiotensin II receptor (Homo sapiens, UniProt P30556)
T4 sequence (P30556 whole entry): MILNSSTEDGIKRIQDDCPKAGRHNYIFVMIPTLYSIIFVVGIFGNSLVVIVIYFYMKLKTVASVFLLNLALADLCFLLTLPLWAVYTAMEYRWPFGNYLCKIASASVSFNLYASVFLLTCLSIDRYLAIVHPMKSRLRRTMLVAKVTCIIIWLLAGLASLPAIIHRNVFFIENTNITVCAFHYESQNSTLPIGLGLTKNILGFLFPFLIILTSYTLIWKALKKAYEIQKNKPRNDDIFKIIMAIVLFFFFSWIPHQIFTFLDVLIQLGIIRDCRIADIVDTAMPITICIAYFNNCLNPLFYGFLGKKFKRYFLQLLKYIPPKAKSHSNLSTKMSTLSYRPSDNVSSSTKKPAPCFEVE

[13] = molecular target: T5, Neuropeptide Y receptor type 1 (Homo sapiens, UniProt P25929); settings: read-out: AC50
T5 sequence (P25929 whole entry): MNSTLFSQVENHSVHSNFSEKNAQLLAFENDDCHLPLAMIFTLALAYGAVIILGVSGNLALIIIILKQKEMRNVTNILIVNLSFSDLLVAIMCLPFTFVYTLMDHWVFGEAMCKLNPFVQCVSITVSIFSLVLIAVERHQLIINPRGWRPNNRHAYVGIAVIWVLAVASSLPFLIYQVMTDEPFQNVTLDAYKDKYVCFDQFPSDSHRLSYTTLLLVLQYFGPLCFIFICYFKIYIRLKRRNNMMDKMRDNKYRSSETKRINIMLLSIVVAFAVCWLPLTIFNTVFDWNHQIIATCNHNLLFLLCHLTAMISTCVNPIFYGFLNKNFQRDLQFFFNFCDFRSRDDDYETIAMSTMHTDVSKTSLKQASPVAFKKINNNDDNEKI

[14] = molecular target: Melanocortin receptor 3 (Homo sapiens, UniProt P41968)
Note: assay procedure not described here.

Sequence of Beta-1 adrenergic receptor (P08588 whole entry): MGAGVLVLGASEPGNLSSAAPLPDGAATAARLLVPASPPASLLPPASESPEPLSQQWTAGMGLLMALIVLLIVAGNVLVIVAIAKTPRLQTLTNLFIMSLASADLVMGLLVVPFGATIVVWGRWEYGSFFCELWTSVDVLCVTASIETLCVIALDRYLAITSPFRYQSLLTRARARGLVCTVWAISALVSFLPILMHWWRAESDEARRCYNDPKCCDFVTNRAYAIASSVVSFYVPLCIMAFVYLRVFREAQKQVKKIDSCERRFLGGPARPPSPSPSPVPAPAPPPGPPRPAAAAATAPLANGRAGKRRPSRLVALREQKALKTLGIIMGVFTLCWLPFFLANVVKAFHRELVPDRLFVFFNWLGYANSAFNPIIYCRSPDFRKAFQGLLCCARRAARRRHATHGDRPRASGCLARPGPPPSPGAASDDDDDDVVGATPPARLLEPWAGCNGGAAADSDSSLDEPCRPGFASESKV
Sequence of D(3) dopamine receptor (P35462 whole entry): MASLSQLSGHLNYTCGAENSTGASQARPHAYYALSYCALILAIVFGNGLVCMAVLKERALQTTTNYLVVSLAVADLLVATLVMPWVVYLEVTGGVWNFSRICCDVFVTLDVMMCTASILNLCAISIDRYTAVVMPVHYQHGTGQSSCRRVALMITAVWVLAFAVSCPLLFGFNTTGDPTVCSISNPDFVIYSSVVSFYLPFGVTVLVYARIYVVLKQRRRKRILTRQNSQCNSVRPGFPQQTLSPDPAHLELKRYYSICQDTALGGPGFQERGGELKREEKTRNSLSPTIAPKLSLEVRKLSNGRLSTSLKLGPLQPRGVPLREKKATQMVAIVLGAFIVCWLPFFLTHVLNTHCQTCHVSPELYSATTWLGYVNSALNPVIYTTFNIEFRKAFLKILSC
Sequence of Muscarinic acetylcholine receptor M3 (P20309 whole entry): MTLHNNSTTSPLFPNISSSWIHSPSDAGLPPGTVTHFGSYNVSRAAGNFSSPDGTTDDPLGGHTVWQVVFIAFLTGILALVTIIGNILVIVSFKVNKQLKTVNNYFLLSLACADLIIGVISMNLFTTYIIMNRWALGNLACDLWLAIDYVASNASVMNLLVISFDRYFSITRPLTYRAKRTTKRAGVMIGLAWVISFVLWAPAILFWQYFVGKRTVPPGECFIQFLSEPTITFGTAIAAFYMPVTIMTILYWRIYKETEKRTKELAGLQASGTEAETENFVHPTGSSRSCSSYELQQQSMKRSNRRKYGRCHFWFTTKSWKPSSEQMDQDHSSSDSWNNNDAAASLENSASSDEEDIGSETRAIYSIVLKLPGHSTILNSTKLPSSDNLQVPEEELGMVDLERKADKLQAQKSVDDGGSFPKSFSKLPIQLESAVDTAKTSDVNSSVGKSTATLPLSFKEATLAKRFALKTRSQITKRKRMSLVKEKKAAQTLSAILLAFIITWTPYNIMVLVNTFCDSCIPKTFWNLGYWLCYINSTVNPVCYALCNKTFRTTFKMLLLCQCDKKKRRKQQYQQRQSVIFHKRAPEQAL
Sequence of Histamine H1 receptor (P35367 whole entry): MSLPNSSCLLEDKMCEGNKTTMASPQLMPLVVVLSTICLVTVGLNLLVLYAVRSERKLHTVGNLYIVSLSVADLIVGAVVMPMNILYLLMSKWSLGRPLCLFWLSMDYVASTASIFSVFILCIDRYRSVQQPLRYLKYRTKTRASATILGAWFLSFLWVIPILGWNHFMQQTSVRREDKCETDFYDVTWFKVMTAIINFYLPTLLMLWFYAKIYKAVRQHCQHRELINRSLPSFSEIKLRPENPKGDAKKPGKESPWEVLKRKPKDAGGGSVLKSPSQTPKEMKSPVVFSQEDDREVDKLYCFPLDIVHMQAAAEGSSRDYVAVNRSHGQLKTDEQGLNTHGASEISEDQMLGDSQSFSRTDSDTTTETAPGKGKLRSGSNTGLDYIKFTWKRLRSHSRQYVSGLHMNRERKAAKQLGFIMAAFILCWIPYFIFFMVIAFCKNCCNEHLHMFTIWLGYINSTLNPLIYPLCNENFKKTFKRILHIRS
Sequence of Sodium-dependent dopamine transporter (Q01959 whole entry): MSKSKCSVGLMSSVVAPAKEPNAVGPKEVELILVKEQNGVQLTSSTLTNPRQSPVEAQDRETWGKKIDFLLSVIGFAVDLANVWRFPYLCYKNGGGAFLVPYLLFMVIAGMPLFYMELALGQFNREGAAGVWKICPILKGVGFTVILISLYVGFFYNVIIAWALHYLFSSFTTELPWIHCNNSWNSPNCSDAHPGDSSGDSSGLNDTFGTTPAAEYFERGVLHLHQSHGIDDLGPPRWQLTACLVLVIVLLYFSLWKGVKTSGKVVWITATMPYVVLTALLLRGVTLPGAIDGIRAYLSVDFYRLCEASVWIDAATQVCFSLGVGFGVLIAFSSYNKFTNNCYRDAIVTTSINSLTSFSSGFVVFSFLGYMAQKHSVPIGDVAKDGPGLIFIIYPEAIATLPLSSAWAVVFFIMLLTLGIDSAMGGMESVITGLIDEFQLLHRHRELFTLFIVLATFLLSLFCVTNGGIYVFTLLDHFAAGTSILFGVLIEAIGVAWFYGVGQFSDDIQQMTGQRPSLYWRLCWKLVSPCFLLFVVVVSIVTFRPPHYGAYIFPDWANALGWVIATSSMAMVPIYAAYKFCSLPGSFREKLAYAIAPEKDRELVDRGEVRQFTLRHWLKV
Sequence of Motilin receptor (O43193 whole entry): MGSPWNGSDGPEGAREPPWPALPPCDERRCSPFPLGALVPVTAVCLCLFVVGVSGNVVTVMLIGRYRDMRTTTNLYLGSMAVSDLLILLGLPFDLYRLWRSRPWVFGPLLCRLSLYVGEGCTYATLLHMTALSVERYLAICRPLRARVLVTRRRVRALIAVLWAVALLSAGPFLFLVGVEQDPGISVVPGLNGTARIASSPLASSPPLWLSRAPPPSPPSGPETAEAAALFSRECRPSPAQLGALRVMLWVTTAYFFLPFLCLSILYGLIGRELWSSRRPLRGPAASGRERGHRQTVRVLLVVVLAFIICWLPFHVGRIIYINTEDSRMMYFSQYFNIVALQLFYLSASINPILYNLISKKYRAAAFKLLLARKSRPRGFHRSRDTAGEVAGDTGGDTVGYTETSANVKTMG
Sequence of Gamma-aminobutyric acid receptor subunit alpha-1 (P62813 whole entry): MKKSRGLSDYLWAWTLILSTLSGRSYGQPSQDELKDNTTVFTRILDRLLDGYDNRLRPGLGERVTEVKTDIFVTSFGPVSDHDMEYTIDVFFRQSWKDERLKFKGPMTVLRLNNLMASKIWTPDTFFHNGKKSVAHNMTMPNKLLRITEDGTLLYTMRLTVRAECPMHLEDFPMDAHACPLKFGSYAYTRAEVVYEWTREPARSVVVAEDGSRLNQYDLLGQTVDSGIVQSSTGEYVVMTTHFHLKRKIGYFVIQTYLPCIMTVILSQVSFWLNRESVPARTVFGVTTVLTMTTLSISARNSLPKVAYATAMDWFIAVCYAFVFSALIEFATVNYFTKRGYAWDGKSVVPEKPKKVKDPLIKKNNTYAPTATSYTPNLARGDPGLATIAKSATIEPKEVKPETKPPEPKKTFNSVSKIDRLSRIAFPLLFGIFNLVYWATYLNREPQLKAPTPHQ
Sequence of Melanocortin receptor 3 (P41968 whole entry): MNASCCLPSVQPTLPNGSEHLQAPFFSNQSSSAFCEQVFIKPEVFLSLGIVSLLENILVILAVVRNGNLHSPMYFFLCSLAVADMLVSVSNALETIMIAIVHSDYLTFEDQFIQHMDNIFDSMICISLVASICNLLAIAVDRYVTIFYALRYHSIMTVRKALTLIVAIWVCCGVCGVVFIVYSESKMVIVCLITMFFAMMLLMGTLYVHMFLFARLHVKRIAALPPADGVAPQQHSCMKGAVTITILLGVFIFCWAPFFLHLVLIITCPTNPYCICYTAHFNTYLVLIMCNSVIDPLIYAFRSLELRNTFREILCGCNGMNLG
Sequence of Sodium-dependent noradrenaline transporter (P23975 whole entry): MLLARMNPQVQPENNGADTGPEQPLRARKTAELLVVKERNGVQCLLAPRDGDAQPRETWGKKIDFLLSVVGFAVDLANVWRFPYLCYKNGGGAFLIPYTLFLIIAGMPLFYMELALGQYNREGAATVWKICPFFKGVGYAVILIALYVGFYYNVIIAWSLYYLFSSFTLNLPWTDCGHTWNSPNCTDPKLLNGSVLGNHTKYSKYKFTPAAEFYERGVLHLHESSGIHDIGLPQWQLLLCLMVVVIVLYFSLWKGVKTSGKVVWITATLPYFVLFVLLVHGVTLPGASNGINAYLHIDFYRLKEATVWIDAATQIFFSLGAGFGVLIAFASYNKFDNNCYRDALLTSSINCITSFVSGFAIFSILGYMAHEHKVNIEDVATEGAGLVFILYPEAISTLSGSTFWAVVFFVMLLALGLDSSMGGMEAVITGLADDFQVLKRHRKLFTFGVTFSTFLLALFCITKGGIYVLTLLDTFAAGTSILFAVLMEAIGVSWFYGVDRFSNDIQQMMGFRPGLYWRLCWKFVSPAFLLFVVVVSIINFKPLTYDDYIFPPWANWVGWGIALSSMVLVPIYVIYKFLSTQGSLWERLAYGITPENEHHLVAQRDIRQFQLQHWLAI

Row | SMILES | AC50 [1] [µM] | AC50 [2] [µM] | AC50 [3] [µM] | AC50 [4] [µM] | AC50 [5] [µM] | AC50 [6] [µM] | AC50 [7] [µM] | AC50 [8] [µM] | AC50 [9] [µM] | AC50 [10] [µM] | AC50 [11] [µM] | AC50 [12] [µM] | AC50 [13] [µM] | AC50 [14] [µM]
1 | Oc1ccc2c(c1)[C@@]13CCCC[C@@]1(O)[C@@H](C2)N(CC1CCC1)CC3 [BUTORPHANOL] | > 30 | > 30 | > 30 | > 30 | > 30 | > 30 | > 30 | > 30 | > 30 | > 30 | > 30 | > 30 | > 30 | > 30
2 | Cc1ncc2n1-c1ccc(Cl)cc1C(c1ccccc1F)=NC2 [MIDAZOLAM] | > 10 | > 10 | > 10 | > 30 | > 30 | > 30 | 10 | > 30 | 0.0025 | > 30 | > 10 | > 30 | > 30 | > 30
3 | C=C1/C(=C\C=C2/CCC[C@]3(C)[C@@H]([C@H](C)/C=C/[C@@H](O)C4CC4)CC[C@@H]23)C[C@@H](O)C[C@@H]1O [CALCIPOTRIENE] | > 30 | > 30 | > 30 | 20 | > 30 | > 30 | > 30 | > 30 | > 30 | > 10 | > 30 | > 30 | > 30 | > 30
4 | C#CCOc1ccc(N)cc1C(=O)NCCCC [PARSALMIDE] | > 30 | > 30 | > 30 | > 30 | > 30 | > 30 | > 30 | > 30 | > 30 | > 30 | > 30 | > 30 | > 30 | > 30
5 | CC(=O)O[C@H](CC(=O)[O-])C[N+](C)(C)C [ACETYLCARNITINE] | 5.2 | > 30 | > 30 | > 30 | > 30 | > 30 | > 30 | > 30 | > 30 | > 30 | > 30 | > 30 | > 30 | > 30
6 | O=C(O)c1ccccc1Nc1cc(Cl)ccc1C(=O)O [LOBENZARIT] | > 30 | > 30 | > 30 | > 30 | > 30 | > 30 | > 30 | > 30 | > 30 | > 30 | > 30 | > 30 | > 30 | > 30
7 | C/C(=C\C(=O)OCCCCCCCCC(=O)O)C[C@@H]1OC[C@H](C[C@@H]2O[C@H]2[C@@H](C)[C@H](C)O)[C@@H](O)[C@H]1O [MUPIROCIN] | > 10 | > 10 | > 10 | > 30 | > 10 | > 30 | > 30 | > 30 | > 10 | > 10 | > 10 | > 10 | > 10 | > 10
8 | C=C[C@@]1(C)CC(=O)[C@]2(O)[C@@]3(C)[C@@H](O)CCC(C)(C)[C@@H]3[C@H](O)[C@H](OC(C)=O)[C@@]2(C)O1 [COLFORSIN] | > 30 | > 30 | > 30 | > 30 | > 30 | > 30 | > 30 | > 30 | > 30 | > 30 | > 30 | > 30 | > 30 | > 30
9 | CCN(CC)C(=O)Nc1ccc(OCC(O)CNC(C)(C)C)c(C(C)=O)c1 (stereo not drawn) [CELIPROLOL] | > 30 | > 30 | 0.076 | > 30 | > 30 | > 30 | > 30 | > 30 | > 30 | > 30 | > 30 | > 30 | > 30 | > 30
10 | CCN(CC)CCN1C(=O)CN=C(c2ccccc2F)c2cc(Cl)ccc21 [FLURAZEPAM] | > 10 | > 10 | > 10 | > 30 | > 30 | > 30 | 8.4 | > 30 | 0.0512 | > 30 | > 10 | > 30 | > 30 | > 30
11 | O=C1CN=C(c2ccccn2)c2cc(Br)ccc2N1 [BROMAZEPAM] | > 10 | > 10 | > 10 | > 10 | > 10 | > 30 | > 30 | > 10 | 0.11 | > 10 | > 10 | > 10 | > 10 | > 10
12 | CCN1CCCC1CNC(=O)c1cc(S(=O)(=O)CC)c(N)cc1OC (stereo not drawn) [AMISULPRIDE] | 30 | > 30 | > 30 | > 30 | > 30 | > 30 | – | – | > 30 | > 30 | – | > 30 | > 30 | > 30
13 | OCc1cc(C(O)CNCCCCCCOCCCCc2ccccc2)ccc1O (stereo not drawn) [SALMETEROL] | > 10 | > 10 | – | 4.3 | > 30 | > 30 | 8.9 | 0.845 | > 10 | > 30 | > 10 | > 30 | > 30 | > 30

Source: ChEMBL document CHEMBL5291721, “A preclinical secondary pharmacology resource illuminates target-adverse drug reaction associations of marketed drugs” (Nat Commun, 2023)
